Data reported in patent publication US20250120942A1, “BRAIN FUNCTION IMPROVING AGENT” (OSAKA UNIVERSITY, priority 2021, published 2025).

Tests used:
[1] = test system: mouse reared in long-term isolation; test: Forced swimming test in mouse reared in long-term isolation (Test Example 6); format: in vivo, ddY mouse; settings: test 30 minutes after administration, 5 weeks isolation, FIG. 6
Protocol: The psychiatric disorder model mouse which was reared in isolation for 5 weeks was orally administered with the compound A and 30 minutes after the administration subjected to the Forced swimming test. The effect of improving depressive symptoms was examined.
The 3-weeks old male ddY mouse which was reared in isolation for 5 weeks in the same manner as in Test Example 3 was used for the test.
The compound A was dissolved in 2.5% DMSO solution in advance. After long-term isolated rearing the mice were divided into 3 groups of 7 mice and the administration groups of the compound A (the administration group of 30 mg/kg, the administration group of 10 mg/kg) and Vehicle group (the administration group of 2.5% DMSO solution) were set and the oral administration was carried out.
In 30 minutes after the oral administration, the forced swimming test was carried out in the same manner as in Test Example 5. The immobility time was measured during the test of 6 minutes and the depressive symptoms of the mouse was evaluated.
From the results obtained, the mean (Mean) and the standard error (SEM) were calculated. The significant difference was assessed between the compound A administration group and the Vehicle group by using Dunnett's test. The level of significance was set to *P<0.05. The vertical axis of the graph in FIG. 6 represents the immobility time during the test.

[2] = test system: mouse reared in long-term isolation; test: Novel object recognition test in psychiatric disorder model mouse reared in long-term isolation, single oral dose (Test Example 3); format: in vivo, ddY mouse; settings: tested 24 hours after administration; for exploratory time of the novel object versus Vehicle group: FIG. 3(A)
Protocol: The action of ameliorating the lowering of the object cognitive function was examined by orally administering the compound A to the mouse reared in long-term isolation. […] In this test, the mouse reared in long-term isolation under the following condition was used as the psychiatric disorder model mouse.
3-weeks-old male ddY mice were purchased from Japan SLC, Inc. The mice were reared in the rearing chamber provided with air conditioner (Conditions: the temperature was 22° C.±1° C., the relative humidity was 50±10%, and the irradiation time was 12 hours (8:00 to 20:00)). The feeding method was that the commercially available MF powdery feed (manufactured by Oriental Yeast Co., ltd.) and tap water were taken freely.
3-weeks-old male ddY mice (n=63) were separately reared in the gray opaque cage (24×17×12 cm) in which the mice could not see the surrounding of the cage for 6 weeks. […] The mice (n=20) collectively reared in a group of 5 mice in the transparent cage (24×17×12 cm) were used as a control group.
Four days prior to the start of the experiment, long-term isolation and group-reared mice were individually acclimated to the test observation box for 10 minutes for three consecutive days. […]
24 hours after the oral administration, the evaluation test for novel object cognitive function was carried out. One object of two objects put in the observation box was replaced with the novel object and the time how long the mouse explored the novel object was measured in the test time of 5 minutes. The object cognitive function of the mouse was evaluated by Discrimination index (%) calculated using the following formula. […]
From the results obtained, the mean (Mean) and the standard error (SEM) were calculated. The significant difference was assessed between the administration group and the control group by using Student's t-test as a method of the statistical processing of the exploratory time and by using Turkey-Kramer's test as a method of the statistical processing of Discrimination index. […]

For O=C1CC[C@H](Cc2cc(O)cc(O)c2)O1 [compound A, (R)-5-(3,5-dihydroxyphenyl)-γ-valerolactone], the “immobility time in forced swimming test versus vehicle group” value ([1]; oral 10 mg/kg) was “significantly reduced”, the “immobility time in forced swimming test versus vehicle group” value ([1]; oral 30 mg/kg) was “significantly reduced” and the “exploratory time of the novel object versus Vehicle group” value ([2]; oral 10 mg/kg) was “significantly increased”. For the same compound, the “exploratory time of the novel object versus Vehicle group” value ([2]; oral 30 mg/kg) was “significantly increased” and the Discrimination index ([2]; oral 30 mg/kg, FIG. 3(B)) was “equal to the score obtained in the group of the mice reared in a group”.
